Blank lines part the entries; values can stand above or below the compound they belong to. The source made the active and inactive calls.
How the values were obtained:
[1] = off-target signal loss in HeLa-CEM21 co-culture – HeLa F-luc CTL cells, cherry-picked, counter-screen for HIV-1 Env fusion inhibitor project, dose response (AID 652040); format: functional, cell-based;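 also: potency for signal decrease marking cytotoxic or nonspecific inhibition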
[2] = ZM109 Env clade C HIV-1 fusion inhibitors, dose response, HeLa effector, CEM target cells, luciferase, cherry-pick (AID 652058); format: functional, cell-based
[3] = inhibitors of HIV Env-driven cell fusion, dose response, cherry-pick (AID 652057); format: functional, cell-based
[4] = inhibitors of clade B AD8 Env fusion, dose response, cell-based, cherry-pick (AID 652062); format: functional;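 also: luciferase signal from cell-cell fusion driven by HIV-1 clade B AD8 Env; potency is for inhibitors of fusion seen as a drop in luminescence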
[5] = cytotoxicity in HEK-293T cells, dose response, cytotoxicity control for TCR NF-kB inhibitor project, luminescence, T-cell screen hits (AID 489026); format: functional, cell-based;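 also: cells exposed to compound about 14 hours before the viability readout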
[6] = molecular target: Eukaryotic translation initiation factor 4E (Mus musculus, UniProt P63073); assay: eIF4E–eIF4G protein interaction inhibitors, dose response, biochemical, TR-FRET (AID 855); format: functional;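 also: potency for disrupting eIF4E binding to eIF4GI seen as loss of FRET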
[7] = molecular target: T1, Mannose-6-phosphate isomerase (Homo sapiens, UniProt P34949); assay: human PMI inhibitors, high substrate, primary screen, biochemical, fluorescence intensity, high mannose 6-phosphate (AID 1220)
T1 sequence (P34949 whole entry): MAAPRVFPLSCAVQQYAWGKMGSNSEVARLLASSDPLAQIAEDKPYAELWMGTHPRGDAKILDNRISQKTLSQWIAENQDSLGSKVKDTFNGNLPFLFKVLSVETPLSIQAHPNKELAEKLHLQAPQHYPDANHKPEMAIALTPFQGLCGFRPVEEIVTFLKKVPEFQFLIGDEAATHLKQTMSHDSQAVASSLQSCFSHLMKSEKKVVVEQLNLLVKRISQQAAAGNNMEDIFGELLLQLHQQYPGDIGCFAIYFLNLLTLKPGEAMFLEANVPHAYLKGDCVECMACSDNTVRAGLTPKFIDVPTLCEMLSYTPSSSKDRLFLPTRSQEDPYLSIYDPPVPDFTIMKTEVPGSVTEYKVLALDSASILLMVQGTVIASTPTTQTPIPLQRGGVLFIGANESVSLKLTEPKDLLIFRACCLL

[8] = CRF-BP/CRF-R2 complex antagonists, dose response, cell-based, uHTS hits, 384-well (AID 651639); format: functional, Homo sapiens; conditions: read-out: IC50_Mean
[9] = molecular target: T2, Corticotropin-releasing factor receptor 2/Corticotropin-releasing factor-binding protein (Homo sapiens, UniProt P24387+Q13324); assay: Dose Response confirmation of uHTS hits for small molecule antagonists of the CRF-binding protein and CRF-R2 receptor complex.; format: functional; conditions: read-out: IC50_Mean
T2 sequence (Q13324 whole entry): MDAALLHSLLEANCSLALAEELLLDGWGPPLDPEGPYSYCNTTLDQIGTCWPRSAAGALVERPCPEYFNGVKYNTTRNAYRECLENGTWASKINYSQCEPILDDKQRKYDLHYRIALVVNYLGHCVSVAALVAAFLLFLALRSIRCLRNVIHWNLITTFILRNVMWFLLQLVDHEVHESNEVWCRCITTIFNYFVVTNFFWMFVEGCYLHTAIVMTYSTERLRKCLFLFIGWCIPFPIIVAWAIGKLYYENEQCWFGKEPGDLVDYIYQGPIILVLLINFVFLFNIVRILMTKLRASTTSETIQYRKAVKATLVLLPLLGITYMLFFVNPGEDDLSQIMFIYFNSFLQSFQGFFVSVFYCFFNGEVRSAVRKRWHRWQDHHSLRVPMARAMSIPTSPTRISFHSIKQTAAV
T2 sequence (P24387 whole entry): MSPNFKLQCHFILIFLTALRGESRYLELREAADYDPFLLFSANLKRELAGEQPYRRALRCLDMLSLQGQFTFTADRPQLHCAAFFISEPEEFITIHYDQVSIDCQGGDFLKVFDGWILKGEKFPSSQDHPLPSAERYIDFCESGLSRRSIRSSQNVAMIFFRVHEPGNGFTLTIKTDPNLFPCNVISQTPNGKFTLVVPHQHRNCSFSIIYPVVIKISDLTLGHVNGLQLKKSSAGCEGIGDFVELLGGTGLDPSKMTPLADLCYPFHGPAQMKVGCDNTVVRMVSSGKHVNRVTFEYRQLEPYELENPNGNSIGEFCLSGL

[10] = molecular target: T2, Corticotropin-releasing factor receptor 2/Corticotropin-releasing factor-binding protein; assay: activators of CRF receptor 2 with binding protein – uHTS hits, confirmation (AID 602473); format: functional; conditions: read-out: EC50_Mean
[11] = molecular target: T3, DNA repair protein RAD52 homolog (Homo sapiens, UniProt P43351); format: functional, biochemical
T3 sequence (P43351 whole entry): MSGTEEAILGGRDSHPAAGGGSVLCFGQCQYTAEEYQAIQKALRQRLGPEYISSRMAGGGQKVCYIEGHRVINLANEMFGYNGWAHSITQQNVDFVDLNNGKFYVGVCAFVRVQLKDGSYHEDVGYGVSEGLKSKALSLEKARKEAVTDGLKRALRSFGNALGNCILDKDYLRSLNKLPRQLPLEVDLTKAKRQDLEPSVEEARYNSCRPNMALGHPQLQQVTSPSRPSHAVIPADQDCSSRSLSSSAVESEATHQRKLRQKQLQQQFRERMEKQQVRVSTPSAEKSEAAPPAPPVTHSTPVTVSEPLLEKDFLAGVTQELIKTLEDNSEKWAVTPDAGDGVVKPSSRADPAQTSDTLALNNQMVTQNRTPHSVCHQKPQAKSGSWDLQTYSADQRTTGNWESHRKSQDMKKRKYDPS

[12] = molecular target: Peroxisome proliferator-activated receptor gamma/Nuclear receptor coactivator 1 (Homo sapiens, UniProt P37231); assay: TR-FRET dose response biochemical High Throughput Screening assay for agonists of the steroid receptor coactivator 1 (SRC-1) recruitment by the peroxisome proliferator-activated receptor gamma (PPAR gamma): non-selective agonists. [Related pubchem assays (depositor defined):AID1300, AID1808, AID504735, AID631]; format: protein assay
[13] = molecular target: Peroxisome proliferator-activated receptor gamma/Nuclear receptor coactivator 2 (Homo sapiens, UniProt P37231); assay: (§1) TR-FRET dose response biochemical High Throughput Screening assay for agonists of the steroid receptor coactivator 2 (SRC-2) recruitment by the peroxisome proliferator-activated receptor gamma (PPAR gamma): non-selective agonists. [Related pubchem assays: 1297, 1032 ]; format: functional
[14] = molecular target: Peroxisome proliferator-activated receptor gamma/Nuclear receptor coactivator 3 (Homo sapiens, UniProt P37231); assay: as §1, with “3 (SRC-3)” for “2 (SRC-2)”, “1301 (Confirmation screen.), 1048 (Primary screen.)]” for “1297, 1032 ]”; format: functional
[15] = cytotoxicity toward NIH3T3 fibroblasts, dose response, counter-screen, cell-based, ATP luminescence, mouse fibroblasts (AID 2010); format: functional;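 also: cells exposed to compound for about 90 hours before reading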
[16] = inhibitors of intracellular T. cruzi replication, confirmation, NIH3T3 host cells, beta-gal luminescence (AID 2044); format: functional, cell-based;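 also: intracellular parasites grown in NIH/3T3 mouse fibroblasts as host cells; luminescent beta-galactosidase reporter signal from transgenic T. cruzi replicating inside host cells; inhibitors lower the luminescence signal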
[17] = molecular target: DNA dC->dU-editing enzyme APOBEC-3G (Homo sapiens, UniProt Q9HC16); assay: Dose Response confirmation of small molecule APOBEC3G DNA Deaminase Inhibitors via a fluorescence-based single-stranded DNA deaminase assay. [Related pubchem assays (depositor defined):AID493012, AID493028]; format: functional
[18] = molecular target: T4, High affinity choline transporter 1 (Homo sapiens, UniProt Q9GZV3); assay: CHT inhibitors, dose response, cell-based, 5-point CRC, membrane potential dye (AID 504840); format: functional
T4 sequence (Q9GZV3 whole entry): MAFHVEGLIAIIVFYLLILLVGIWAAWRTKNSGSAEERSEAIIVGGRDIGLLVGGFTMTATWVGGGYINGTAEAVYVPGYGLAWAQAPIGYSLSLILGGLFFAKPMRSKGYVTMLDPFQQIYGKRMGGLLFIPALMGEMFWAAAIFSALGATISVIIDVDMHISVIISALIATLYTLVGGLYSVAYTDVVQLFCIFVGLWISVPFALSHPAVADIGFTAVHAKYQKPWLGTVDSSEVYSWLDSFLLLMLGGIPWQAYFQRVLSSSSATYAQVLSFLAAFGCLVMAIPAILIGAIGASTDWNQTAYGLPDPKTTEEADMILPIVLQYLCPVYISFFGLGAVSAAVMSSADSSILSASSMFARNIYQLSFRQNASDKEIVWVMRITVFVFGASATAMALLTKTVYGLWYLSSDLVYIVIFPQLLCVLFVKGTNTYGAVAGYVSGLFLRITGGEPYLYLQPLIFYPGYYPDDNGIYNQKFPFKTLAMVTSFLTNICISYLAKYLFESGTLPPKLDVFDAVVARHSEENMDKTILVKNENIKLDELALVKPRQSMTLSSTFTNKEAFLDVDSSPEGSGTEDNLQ

[19] = HEp-2 cell cytotoxicity, dose response, cytotoxicity control for RSV inhibitor project, HTS (AID 2410); format: functional; conditions: human respiratory syncytial virus
Cytochrome P450 2D6 = Cytochrome P450 2D6 (Homo sapiens, UniProt P10635);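 also: CYP2D6 member of a cytochrome P450 panel assay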
Prothrombin = Prothrombin (Homo sapiens, UniProt P00734); assay: Thrombin 1536 HTS Dose Response Confirmation. [Related pubchem assays: 1046 (Thrombin 1536 HTS; hits were confirmed in this assay)]; format: functional
[20] = molecular target: G-protein coupled receptor 55 (Homo sapiens, UniProt Q9Y2T6); assay: GPR55 agonists via beta-arrestin recruitment, primary screen, imaging, U2OS cells, beta-arrestin-GFP redistribution (AID 1961); format: functional
G-protein coupled receptor 55, sequence (Q9Y2T6 whole entry): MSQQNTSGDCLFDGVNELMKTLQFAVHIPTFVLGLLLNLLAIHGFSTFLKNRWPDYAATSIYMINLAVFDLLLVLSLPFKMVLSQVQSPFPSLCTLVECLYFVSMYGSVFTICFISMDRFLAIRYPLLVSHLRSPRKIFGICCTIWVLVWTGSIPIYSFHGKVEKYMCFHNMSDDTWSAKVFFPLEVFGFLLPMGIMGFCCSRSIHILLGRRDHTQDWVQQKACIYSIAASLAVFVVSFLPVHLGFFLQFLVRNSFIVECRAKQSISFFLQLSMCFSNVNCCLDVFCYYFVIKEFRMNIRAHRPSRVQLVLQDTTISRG

Eukaryotic translation initiation factor 4E, sequence (P63073 whole entry): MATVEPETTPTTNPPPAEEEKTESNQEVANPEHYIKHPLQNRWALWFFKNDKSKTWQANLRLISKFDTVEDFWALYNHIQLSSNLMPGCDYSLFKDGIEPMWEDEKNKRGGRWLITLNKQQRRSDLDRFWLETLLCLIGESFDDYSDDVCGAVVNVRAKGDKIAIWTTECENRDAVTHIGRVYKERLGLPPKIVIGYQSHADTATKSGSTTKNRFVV
DNA dC->dU-editing enzyme APOBEC-3G, sequence (Q9HC16 whole entry): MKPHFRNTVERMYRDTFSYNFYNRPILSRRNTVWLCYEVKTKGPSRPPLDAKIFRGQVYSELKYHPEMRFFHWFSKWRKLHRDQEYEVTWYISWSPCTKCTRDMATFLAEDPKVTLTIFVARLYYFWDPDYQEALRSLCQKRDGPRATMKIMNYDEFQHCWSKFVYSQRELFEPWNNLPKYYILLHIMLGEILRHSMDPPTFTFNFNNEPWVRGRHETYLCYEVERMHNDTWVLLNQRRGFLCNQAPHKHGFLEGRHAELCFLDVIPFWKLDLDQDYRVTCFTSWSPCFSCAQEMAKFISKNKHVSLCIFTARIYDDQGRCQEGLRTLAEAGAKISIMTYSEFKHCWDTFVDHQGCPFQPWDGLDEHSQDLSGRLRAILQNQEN
Peroxisome proliferator-activated receptor gamma/Nuclear receptor coactivator 1, sequence (P37231 whole entry): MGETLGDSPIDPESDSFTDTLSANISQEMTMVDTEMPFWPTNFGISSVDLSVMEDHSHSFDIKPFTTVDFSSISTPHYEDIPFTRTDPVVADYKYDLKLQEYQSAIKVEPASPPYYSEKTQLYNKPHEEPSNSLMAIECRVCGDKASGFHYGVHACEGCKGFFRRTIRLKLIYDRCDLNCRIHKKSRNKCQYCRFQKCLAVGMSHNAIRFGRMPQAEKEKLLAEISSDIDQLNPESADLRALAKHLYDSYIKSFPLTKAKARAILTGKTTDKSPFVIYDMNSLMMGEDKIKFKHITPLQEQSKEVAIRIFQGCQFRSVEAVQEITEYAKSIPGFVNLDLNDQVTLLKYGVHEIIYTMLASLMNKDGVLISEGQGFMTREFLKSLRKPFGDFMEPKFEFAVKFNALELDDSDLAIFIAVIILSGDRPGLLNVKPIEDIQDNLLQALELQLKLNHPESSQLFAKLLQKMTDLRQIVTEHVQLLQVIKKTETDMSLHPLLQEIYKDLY
Peroxisome proliferator-activated receptor gamma/Nuclear receptor coactivator 1, sequence (Q15788 whole entry, further chain): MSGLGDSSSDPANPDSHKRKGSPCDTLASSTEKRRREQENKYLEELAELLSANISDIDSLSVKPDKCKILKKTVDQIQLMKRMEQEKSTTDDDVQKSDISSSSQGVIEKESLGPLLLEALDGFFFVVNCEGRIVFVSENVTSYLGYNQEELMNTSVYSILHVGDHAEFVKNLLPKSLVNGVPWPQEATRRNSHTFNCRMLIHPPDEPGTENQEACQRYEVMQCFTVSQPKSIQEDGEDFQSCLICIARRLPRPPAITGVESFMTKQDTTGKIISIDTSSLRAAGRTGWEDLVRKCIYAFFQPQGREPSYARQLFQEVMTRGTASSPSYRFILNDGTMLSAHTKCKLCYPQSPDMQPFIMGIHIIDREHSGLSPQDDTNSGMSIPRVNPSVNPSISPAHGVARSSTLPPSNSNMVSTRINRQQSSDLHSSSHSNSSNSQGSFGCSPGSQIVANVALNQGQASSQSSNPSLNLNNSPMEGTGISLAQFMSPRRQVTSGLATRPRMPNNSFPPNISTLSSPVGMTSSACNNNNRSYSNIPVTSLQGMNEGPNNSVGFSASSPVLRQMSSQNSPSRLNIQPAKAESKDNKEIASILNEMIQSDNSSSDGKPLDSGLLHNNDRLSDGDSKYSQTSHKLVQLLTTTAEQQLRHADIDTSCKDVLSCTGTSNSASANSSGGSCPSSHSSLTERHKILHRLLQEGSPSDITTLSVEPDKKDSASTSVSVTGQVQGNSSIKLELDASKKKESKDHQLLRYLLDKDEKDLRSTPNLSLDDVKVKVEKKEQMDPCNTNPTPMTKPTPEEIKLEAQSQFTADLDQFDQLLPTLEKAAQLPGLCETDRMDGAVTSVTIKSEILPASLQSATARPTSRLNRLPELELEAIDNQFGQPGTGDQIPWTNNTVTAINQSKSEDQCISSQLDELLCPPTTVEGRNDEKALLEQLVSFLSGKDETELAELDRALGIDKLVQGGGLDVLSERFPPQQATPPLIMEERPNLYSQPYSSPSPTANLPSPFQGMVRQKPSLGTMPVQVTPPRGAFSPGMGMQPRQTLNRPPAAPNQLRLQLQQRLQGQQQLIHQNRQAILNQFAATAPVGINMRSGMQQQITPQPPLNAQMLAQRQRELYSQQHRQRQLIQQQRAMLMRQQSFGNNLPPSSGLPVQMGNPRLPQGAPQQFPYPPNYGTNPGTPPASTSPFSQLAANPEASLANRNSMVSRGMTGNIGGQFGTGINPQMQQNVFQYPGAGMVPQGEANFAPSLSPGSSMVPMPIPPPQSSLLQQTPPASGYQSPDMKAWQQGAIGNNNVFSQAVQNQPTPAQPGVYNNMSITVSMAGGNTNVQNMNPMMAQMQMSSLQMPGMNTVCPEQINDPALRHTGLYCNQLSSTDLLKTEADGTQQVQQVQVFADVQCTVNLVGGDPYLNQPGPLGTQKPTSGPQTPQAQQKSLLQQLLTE
Peroxisome proliferator-activated receptor gamma/Nuclear receptor coactivator 2, sequence (P37231 whole entry): as the sequence (P37231 whole entry) above
Peroxisome proliferator-activated receptor gamma/Nuclear receptor coactivator 2, sequence (Q15596 whole entry, further chain): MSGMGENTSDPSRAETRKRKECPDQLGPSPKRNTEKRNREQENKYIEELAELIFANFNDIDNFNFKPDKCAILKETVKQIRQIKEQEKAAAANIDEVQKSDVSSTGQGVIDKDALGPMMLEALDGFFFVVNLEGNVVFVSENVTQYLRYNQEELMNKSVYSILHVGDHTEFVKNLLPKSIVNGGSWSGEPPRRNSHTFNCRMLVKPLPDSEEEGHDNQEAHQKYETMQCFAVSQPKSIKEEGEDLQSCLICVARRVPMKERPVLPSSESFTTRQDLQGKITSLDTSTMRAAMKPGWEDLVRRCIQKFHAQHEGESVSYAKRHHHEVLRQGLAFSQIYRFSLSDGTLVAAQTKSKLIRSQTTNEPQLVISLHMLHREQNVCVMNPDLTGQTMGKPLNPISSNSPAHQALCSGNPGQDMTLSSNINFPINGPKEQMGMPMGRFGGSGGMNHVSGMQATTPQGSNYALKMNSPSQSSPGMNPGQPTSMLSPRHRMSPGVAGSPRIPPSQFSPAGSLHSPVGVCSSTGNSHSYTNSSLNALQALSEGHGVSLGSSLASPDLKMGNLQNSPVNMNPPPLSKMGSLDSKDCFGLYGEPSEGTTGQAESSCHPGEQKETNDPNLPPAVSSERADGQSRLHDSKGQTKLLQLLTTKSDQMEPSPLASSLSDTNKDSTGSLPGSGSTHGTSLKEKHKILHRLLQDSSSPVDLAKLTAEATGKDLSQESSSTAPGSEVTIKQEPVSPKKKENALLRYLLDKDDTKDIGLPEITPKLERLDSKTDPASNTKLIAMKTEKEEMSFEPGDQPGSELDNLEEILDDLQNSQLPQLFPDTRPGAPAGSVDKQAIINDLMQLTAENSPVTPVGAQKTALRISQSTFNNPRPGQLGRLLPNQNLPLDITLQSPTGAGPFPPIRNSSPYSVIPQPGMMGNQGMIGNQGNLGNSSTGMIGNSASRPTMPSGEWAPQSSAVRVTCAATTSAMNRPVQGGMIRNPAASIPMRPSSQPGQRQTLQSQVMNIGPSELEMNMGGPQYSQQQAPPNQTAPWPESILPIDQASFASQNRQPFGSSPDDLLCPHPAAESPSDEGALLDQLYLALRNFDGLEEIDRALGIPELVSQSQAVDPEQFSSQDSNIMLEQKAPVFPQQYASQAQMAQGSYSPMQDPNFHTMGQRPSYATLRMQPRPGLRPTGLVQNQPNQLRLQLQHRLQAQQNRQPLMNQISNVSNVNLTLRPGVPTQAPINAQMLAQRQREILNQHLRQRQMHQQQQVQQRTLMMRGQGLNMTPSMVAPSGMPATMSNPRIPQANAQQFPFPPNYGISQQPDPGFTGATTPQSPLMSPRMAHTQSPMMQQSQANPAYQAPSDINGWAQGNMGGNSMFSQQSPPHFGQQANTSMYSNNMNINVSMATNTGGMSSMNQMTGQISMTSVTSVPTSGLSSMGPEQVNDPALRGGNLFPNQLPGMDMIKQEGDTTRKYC

Compound: COc1ccc(OC(=O)N(C)C[C@@H]2OCc3ccccc3-c3c(n(C)c4ccccc34)C(=O)N([C@H](C)CO)C[C@@H]2C)cc1
AC50 [1]: 2.43 µM (active)
AC50 [2]: 1.44 µM (active)
AC50 [3]: 1.62 µM (active)
AC50 [4]: 3.25 µM (active)

Compound: COc1ccc(C2=Nn3c(nnc3-c3ccccc3OC)SC2)cc1OC1CCCC1
IC50 [5]: 35.9 µM (inactive)

IC50 [6]: > 64 µM (inactive)
Compound: COC(=O)c1ccccc1NC(=O)COC(=O)c1ccc(C)c(NC(=O)c2ccco2)c1

Compound: CCOC(=O)c1[nH]c(C)c(C(=O)Nc2ccccc2C)c1C
IC50 [5]: > 80 µM (inactive)

IC50 [7]: 24.5 µM (active)
Compound: CCN(CC)C(=S)SC1=CCS(=O)(=O)C1

Compound: CC(=O)Oc1cc(OC(C)=O)c2c(C)cc(=O)oc2c1
IC50 (cells): 25.3 µM (active)

IC50 [8]: > 20 µM (inactive)
IC50 [9]: 6.89 µM (active)
EC50 [10]: > 53 µM (inactive)
Compound: COc1ccc(/C=C/C(=O)NCc2cn(C)nc2C)cc1COc1ccc(Cl)cc1Br

AC50 [11]: 13.2 µM (active)
Compound: N=C(N)Nc1ccc(/C=C2\C=Cc3ccccc32)cc1

IC50 [8]: 8.13 µM (active)
IC50 [9]: 13.9 µM (active)
EC50 [10]: > 53 µM (inactive)
Compound: CC1=C(c2ccccc2)C(O)(c2ccccc2)C(C)C1=O (centres undefined)

EC50 [12]: 94.8 µM (inactive)
EC50 [13]: 26 µM (not active)
EC50 [14]: > 79.4 µM (not active)
Compound: O=C(O)Cc1sc(-c2ccccc2)nc1-c1cccs1

AC50 [11]: 12.6 µM (active)
Compound: Cc1ccc2nc(NC(=N)N)nc(C)c2c1

Compound: O=C(Nc1nc2ccc(S(=O)(=O)N3CCCC3)cc2s1)c1ccccn1
EC50 [15]: 5.13 µM (active)
IC50 [8]: > 20 µM (inactive)
IC50 [9]: 28.6 µM (active)
EC50 [10]: > 53 µM (inactive)
EC50 [16]: 2.15 µM (active)

Compound: CC(C)(C)C1=Nn2c(nnc2-c2n[nH]c3c2CCC3)SC1
IC50 [17]: 23.3 µM (active)
IC50 [7]: > 50 µM (not active)

IC50 [18]: 13.2 µM (active)
EC50 [10]: 15.6 µM (active)
Compound: COc1ccc2c(c1)OC(O)(C(F)(F)C(F)F)CC2=O (centres undefined)

IC50 [8]: 10.6 µM (active)
IC50 [9]: 39 µM (active)
EC50 [10]: > 53 µM (inactive)
Compound: COCCNc1nc2c(S(=O)(=O)c3cc(C)ccc3C)nnn2c2ccccc12

Compound: CCn1c(SCc2c(Cl)cccc2Cl)nnc1-c1nn(-c2ccccc2)ccc1=O
CC50 [19]: 49.8 µM (active)
IC50 (cells): 33.7 µM (active)

IC50 [18]: 14.5 µM (active)
AC50 (Cytochrome P450 2D6): 20 µM (inconclusive)
IC50 (Prothrombin): > 50 µM (not active)
Compound: CCOC(=O)c1ccccc1Oc1c(F)c(F)nc(NCCO)c1F

Compound: COc1ccc(S(=O)(=O)Nc2ccc3c(c2)CC(=O)N([C@@H](C)CO)C[C@H](C)[C@H](CN(C)S(=O)(=O)c2ccccc2)O3)cc1
AC50 [2]: 1.82 µM (active)
AC50 [3]: 2.12 µM (active)
AC50 [4]: 11.6 µM (active)

Compound: COc1cc(C(C(=O)NC2CCCCC2)N(C(=O)c2snc(C(N)=O)c2N)c2ccc(C)cc2)ccc1O (centres undefined)
CC50 [19]: > 50 µM (active)
IC50 (cells): 47 µM (active)

Compound: CCc1ccc(-n2c(C)nnc2S)cc1
IC50 [17]: 14.6 µM (active)

Compound: CN(CC(=O)NCCc1ccc(S(N)(=O)=O)cc1)CC(=O)Nc1ccc(Cl)c(C(F)(F)F)c1
AC50 [1]: 7.96 µM (active)
AC50 [2]: 2.95 µM (active)
AC50 [3]: 5.63 µM (active)
AC50 [4]: 11.9 µM (active)

IC50 [6]: > 64 µM (inactive)
Compound: CCN(CC)S(=O)(=O)c1cc(F)ccc1OC

EC50 [12]: > 79.4 µM (inactive)
EC50 [13]: > 79.4 µM (not active)
EC50 [14]: > 79.4 µM (not active)
Compound: CCOC(=O)C1CCN(C(=O)CSc2cc(=O)n(CC)c3ccccc23)CC1

EC50 [20]: 0.523 µM (active)
Compound: CCOC(=O)c1sc2cc([N+](=O)[O-])cc(SCC(C)C)c2c1N

IC50 [7]: > 50 µM (not active)
Compound: N#Cc1c2ccc(OCC(N)=O)cc2n2ccccc12

IC50 [18]: 17.4 µM (active)
Compound: CSc1ccc(S(=O)(=O)N2CCC(C(=O)N3CCc4ccccc4C3)CC2)cc1
